Read-outs that look alike come from different tables or passages of the source.
Test system: BMP signal in MDA-231-D-BREFluc/Rluc cells
Assay: BMP signal inhibitory effect (AlphaScreen SureFire SMAD1 p-Ser463/465, BMP-6 stimulation)
Format: cell-based
Procedure, shortened: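 MDA-231-D-BREFluc/Rluc cells were pretreated with compound for 2 h at 37° C, then stimulated with BMP-6 for 30 min. SMAD1 p-Ser463/465 in lysates was measured by AlphaScreen SureFire.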

[1] = BMP-6 stimulated MDA-231-D-BREFluc/Rluc cells, phospho-SMAD1 AlphaScreen, read-out: IC50

SMILES: CCn1cc(-c2ccnc(Nc3ccc(C(=O)N4CCCCC4)cc3)n2)c(-c2cccnc2)n1 [Example 2, (4-((4-(1-ethyl-3-(pyridin-3-yl)-1H-pyrazol-4-yl)pyrimidin-2-yl)amino)phenyl)(piperidin-1-yl)methanone]
- IC50 [1]: 40.7 nM

SMILES: CCn1cc(-c2ccnc(Nc3ccc(C(=O)N4CCN(C(C)(C)C)CC4)cc3)n2)c(-c2cccnc2)n1 [Example 1, (4-(tert-butyl)piperazin-1-yl)(4-((4-(1-ethyl-3-(pyridin-3-yl)-1H-pyrazol-4-yl)pyrimidin-2-yl)amino)phenyl)methanone]
- IC50 [1]: 6.9 nM

SMILES: CCn1cc(-c2ccnc(Nc3ccc(C4CCN(C)CC4)c(F)c3)n2)c(-c2cccnc2)n1 [Example 45, 4-(1-ethyl-3-(pyridin-3-yl)-1H-pyrazol-4-yl)-N-(3-fluoro-4-(1-methylpiperidin-4-yl)phenyl)pyrimidin-2-amine]
- IC50 [1]: 12.1 nM

SMILES: CCn1cc(-c2ccnc(Nc3ccc(-c4cccnc4)cc3)n2)c(-c2cccnc2)n1 [Example 133, 4-(1-ethyl-3-(pyridin-3-yl)-1H-pyrazol-4-yl)-N-(4-(pyridin-3-yl)phenyl)pyrimidin-2-amine]
- IC50 [1]: 18.7 nM

SMILES: CCn1cc(-c2ccnc(Nc3ccc(OC4CN(CCOC)C4)cc3)n2)c(-c2cccnc2)n1 [Example 92, 4-(1-Ethyl-3-(pyridin-3-yl)-1H-pyrazol-4-yl)-N-(4-((1-(2-methoxyethyl)azetidin-3-yl)oxy)phenyl) pyrimidin-2-amine]
- IC50 [1]: 11.9 nM

SMILES: CCn1cc(-c2ccnc(Nc3ccc(N4CCN(CC5CCCN5C)CC4)cc3)n2)c(-c2cccnc2)n1 (stereo not drawn) [Example 78, 4-(1-Ethyl-3-(pyridin-3-yl)-1H-pyrazol-4-yl)-N-(4-(4-((1-methylpyrrolidin-2-yl)methyl)piperazin-1-yl)phenyl)pyrimidin-2-amine]
- IC50 [1]: 12.7 nM

SMILES: CCn1cc(-c2ccnc(Nc3ccc(-c4cn[nH]c4)cc3)n2)c(-c2cccnc2)n1 [Example 30, N-(4-(1H-pyrazol-4-yl)phenyl)-4-(1-ethyl-3-(pyridin-3-yl)-1H-pyrazol-4-yl)pyrimidin-2-amine]
- IC50 [1]: 32.9 nM

SMILES: CCn1cc(-c2ccnc(Nc3ccc(N4CCN(CCOCC(F)F)CC4)cc3)n2)c(-c2cccnc2)n1 [Example 51, N-(4-(4-(2-(2,2-difluoroethoxy)ethyl)piperazin-1-yl)phenyl)-4-(1-ethyl-3-(pyridin-3-yl)-1H-pyrazol-4-yl)pyrimidin-2-amine]
- IC50 [1]: 18.3 nM

SMILES: CCn1cc(-c2ccnc(Nc3ccc4c(c3)OCCN(CCOC)C4)n2)c(-c2cccnc2)n1 [Example 91, N-(4-(l-Ethyl-3-(pyridin-3-yl)-1H-pyrazol-4-yl)pyrimidin-2-yl)-4-(2-methoxyethyl)-2,3,4,5-tetrahydrobenzo[f][1,4] oxazepin-8-amine]
- IC50 [1]: 21.3 nM

SMILES: COCCn1cc(-c2ccnc(Nc3ccc(N4CCN(CC5CCCN5C)CC4)cc3)n2)c(-c2cccnc2)n1 (stereo not drawn) [Example 80, 4-(1-(2-Methoxyethyl)-3-(pyridin-3-yl)-1H-pyrazol-4-yl)-N-(4-(4-((1-methylpyrrolidin-2-yl)methyl)piperazin-1-yl)phenyl)pyrimidin-2-amine]
- IC50 [1]: 26.7 nM

SMILES: CCn1cc(-c2ccnc(Nc3ccc(-c4ccncc4)cc3)n2)c(-c2cccnc2)n1 [Example 134, 4-(1-Ethyl-3-(pyridin-3-yl)-1H-pyrazol-4-yl)-N-(4-(pyridin-4-yl)phenyl)pyrimidin-2-amine]
- IC50 [1]: 21.8 nM

SMILES: CCn1cc(-c2ccnc(Nc3ccc4c(c3)CCN(CC3CCCO3)C4)n2)c(-c2cccnc2)n1 (stereo not drawn) [Example 89, N-(4-(1-Ethyl-3-(pyridin-3-yl)-1H-pyrazol-4-yl)pyrimidin-2-yl)-2-((tetrahydrofuran-2-yl)methyl)-1,2,3,4-tetrahydroisoquinolin-6-amine]
- IC50 [1]: 5.7 nM

SMILES: CCn1cc(-c2ccnc(Nc3ccc4c(c3)CN(C3COC3)C4)n2)c(-c2cccnc2)n1 [Example 9, N-(4-(1-Ethyl-3-(pyridin-3-yl)-1H-pyrazol-4-yl)pyrimidin-2-yl)-2-(oxetan-3-yl)isoindolin-5-amine]
- IC50 [1]: 23.5 nM

SMILES: CCn1cc(-c2ccnc(Nc3cnn(C4CCN(CC(C)(C)O)CC4)c3)n2)c(-c2cccnc2)n1 [Example 54, 1-(4-(4-((4-(1-Ethyl-3-(pyridin-3-yl)-1H-pyrazol-4-yl)pyrimidin-2-yl)amino)-1H-pyrazol-1-yl)piperidin-1-yl)-2-methylpropan-2-ol]
- IC50 [1]: 8.2 nM

SMILES: CCn1cc(-c2ccnc(Nc3ccc4c(c3)CCN(CC(=O)O)C4)n2)c(-c2cccnc2)n1 [Example 172, 2-(6-((4-(1-ethyl-3-(pyridin-3-yl)-1H-pyrazol-4-yl)pyrimidin-2-yl)amino)-3,4-dihydroisoquinolin-2(1H)-yl)acetic acid]
- IC50 [1]: 38.3 nM

SMILES: COCCn1cc(-c2ccnc(Nc3ccc(C4CCN(C5COC5)CC4)cc3)n2)c(-c2cccnc2)n1 [Example 13]
- IC50 [1]: 26.8 nM

SMILES: CCn1cc(-c2ccnc(Nc3ccc4c(c3)CCN(C)CC4)n2)c(-c2cccnc2)n1 [Example 115, N-(4-(1-Ethyl-3-(pyridin-3-yl)-1H-pyrazol-4-yl)pyrimidin-2-yl)-3-methyl-2,3,4,5-tetrahydro-1H-benzo [d] azepin-7-amine]
- IC50 [1]: 1.1 nM

SMILES: CN1CCc2cc(Nc3nccc(-c4cn(C5COC5)nc4-c4cccnc4)n3)ccc2C1 [Example 8, 2-methyl-N-(4-(1-(oxetan-3-yl)-3-(pyridin-3-yl)-1H-pyrazol-4-yl)pyrimidin-2-yl)-1,2,3,4-tetrahydroisoquinolin-6-amine]
- IC50 [1]: 6.8 nM

SMILES: CCn1cc(-c2ccnc(Nc3ccc(C(=O)N4CC5CCC(C4)N5C4CCCC4)cc3)n2)c(-c2cccnc2)n1 [Example 118, (8-Cyclopentyl-3,8-diazabicyclo [3.2.1]octan-3-yl) (4-((4-(1-ethyl-3-(pyridin-3-yl)-1H-pyrazol-4-yl)pyrimidin-2-yl)amino)phenyl) methanone]
- IC50: 8.6 nM

SMILES: CCn1cc(-c2ccnc(Nc3ccc4c(n3)CCN(C)C4)n2)c(-c2cccnc2)n1 [Example 7, N-(4-(1-ethyl-3-(pyridin-3-yl)-1H-pyrazol-4-yl)pyrimidin-2-yl)-6-methyl-5,6,7,8-tetrahydro-1,6-naphthyridin-2-amine]
- IC50 [1]: 144 nM

SMILES: CCn1cc(-c2ccnc(Nc3ccc(N4CCN(CC(O)COC)CC4)cc3)n2)c(-c2cccnc2)n1 (stereo not drawn) [Example 105, 1-(4-(4-((4-(1-Ethyl-3-(pyridin-3-yl)-1H-pyrazol-4-yl)pyrimidin-2-yl)amino)phenyl)piperazin-1-yl)-3-methoxypropan-2-ol]
- IC50 [1]: 33.7 nM

SMILES: CCn1cc(-c2ccnc(Nc3ccc4c(c3)CNC4)n2)c(-c2cccnc2)n1 [Example 73, N-(4-(1-ethyl-3-(pyridin-3-yl)-1H-pyrazol-4-yl)pyrimidin-2-yl)isoindolin-5-amine]
- IC50 [1]: 7.2 nM

SMILES: CCn1cc(-c2ccnc(Nc3ccc(N4CCCN(CCOC)CC4)cc3)n2)c(-c2cccnc2)n1 [Example 94, 4-(1-Ethyl-3-(pyridin-3-yl)-1H-pyrazol-4-yl)-N-(4-(4-(2-methoxyethyl)-1,4-diazepan-1-yl)phenyl)pyrimidin-2-amine]
- IC50 [1]: 24.3 nM

SMILES: CCn1cc(-c2ccnc(Nc3ccc4c(c3)CCN(C3COC3)C4)n2)c(-c2cccnc2)n1 [Example 95, N-(4-(1-Ethyl-3-(pyridin-3-yl)-1H-pyrazol-4-yl)pyrimidin-2-yl)-2-(oxetan-3-yl)-1,2,3,4-tetrahydroisoquinolin-6-amine]
- IC50 [1]: 14.8 nM
